Measured values from ChEMBL document CHEMBL1136425, “A novel metal-chelating inhibitor of protein farnesyltransferase” (Bioorg Med Chem Lett, 2003).
pIC50: −log10 of the molar value. Values after ≈ are worked out from the molar mass of the structure shown.

Target: Protein farnesyltransferase (Homo sapiens, UniProt P49354+P49356)
Test: Inhibition of [3H]farnesyl pyrophosphate binding to human farnesyltransferase
Assay type: protein-complex assay

| pIC50 | Compound |
| --- | --- |
| 3.21 | CN(C)c1cc(CNCCS)nc(CNCCS)c1 |
| 1.81 | NCCN [ETHYLENEDIAMINE] |
| 1.00 | c1ccc(-c2ccccn2)nc1 |

Second part, the molecule before the results:

| Compound | pIC50 |
| --- | --- |
| c1cnc2c(c1)ccc1cccnc12 [PHENANTHROLINE] | 2.40 |
| CCCC[C@@H](C)/C=C(C)/C=C(\C)C(=O)NC1=C[C@@](O)(/C=C/C=C/C=C/C(=O)NC2=C(O)CCC2=O)[C@@H]2O[C@@H]2C1=O [MANUMYCIN A] | 4.92 |

Test system: not listed separately
Test: Inhibitory activity against K-rasNRK cells
Assay type: functional, cell-based, Rattus norvegicus

| IC50 | Compound |
| --- | --- |
| 0.32 µg/mL (≈ 0.834 µM) | SCCNCc1cc(-c2cccc3ccccc23)cc(CNCCS)n1 |
